The record followed here is patent US9440950B2, “Arginine methyltransferase inhibitors and uses thereof” (Epizyme, Inc., priority 2013, dated 2016).

T1 sequence (Q96LA8 with tags, fused parts or gaps): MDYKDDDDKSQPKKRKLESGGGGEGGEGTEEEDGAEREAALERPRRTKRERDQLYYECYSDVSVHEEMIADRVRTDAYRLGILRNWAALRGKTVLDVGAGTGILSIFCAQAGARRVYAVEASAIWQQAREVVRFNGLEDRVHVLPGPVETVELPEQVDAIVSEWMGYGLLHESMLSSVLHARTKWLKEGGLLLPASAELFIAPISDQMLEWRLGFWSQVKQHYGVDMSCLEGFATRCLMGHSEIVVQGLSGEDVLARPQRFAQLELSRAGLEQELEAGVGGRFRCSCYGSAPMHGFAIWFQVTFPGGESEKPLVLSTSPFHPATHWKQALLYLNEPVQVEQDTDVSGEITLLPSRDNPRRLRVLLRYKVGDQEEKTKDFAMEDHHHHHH

This assay concerns the target T1, human PRMT6 (Homo sapiens, UniProt Q96LA8).
T1 construct: Flag-PRMT6-His; made in house; host or cells: HEK 293F cells (BacMam virus, pFastBacMam)
The assay is described as follows: PRMT6 Biochemical Assay. The following applies: peptide substrate, 3H-SAM Flashplate assay. The source says: S-adenosylmethionine (SAM), S-adenosylhomocysteine (SAH), bicine, Tween20, dimethylsulfoxide (DMSO), bovine skin gelatin (BSG), sodium butyrate and Tris(2-carboxyethyl)phosphine hydrochloride solution (TCEP) were purchased from Sigma-Aldrich at the highest level of purity possible. ^3H-SAM was purchase from American Radiolabeled Chemicals with a specific activity of 80 Ci/mmol. 384-well streptavidin Flashplates were purchased from PerkinElmer.
Peptide representative of human histone H4 residues 36-50 was synthesized with an N-terminal linker-affinity tag motif and a C-terminal amide cap by 21st Century Biochemicals. The peptide was purified by high-performance liquid chromatography (HPLC) to greater than 95% purity and confirmed by liquid chromatography mass spectrometry (LC-MS). The sequence was Biot-Ahx-[…]-amide and contained a monomethylated lysine at position 44 (SEQ ID NO.:5).
Full-length human PRMT6 (NM_018137.2) transcript clone was amplified from an HEK 293 cDNA library, incorporating a flanking 5′ sequence encoding a FLAG tag ([…]) (SEQ ID NO.:6) fused directly to Ser 2 of PRMT6 and a 3′ sequence encoding a hexa His sequence (HHHHHH) fused directly to Asp 375. The amplified gene was subcloned into pFastBacMam (Viva Biotech).
Recombinant baculovirus were generated according to Bac-to-Bac kit instructions (Life Technologies). […] Infections were carried out at 37° C. for 48 hours, harvested by centrifugation, and stored at −80° C. for purification.
Column was washed with 20 mM imidazole in the same buffer and Flag-PRMT6-His was eluted with 150 mM imidazole. Pooled fractions were dialysed against buffer Ni-A and further purified by anti-flag M2 affinity chromatography. Flag-PRMT6-His was eluted with 200 ug/ml FLAG peptide in the same buffer. Pooled fractions were dialysed in 20 mM Tris, 150 mM NaCl, 10% glycerol and 5 mM β-mercaptoethanol, pH 7.8. The purity of recovered protein was 95%.
General Procedure for PRMT6 Enzyme Assays on Peptide Substrates.
The assays were all performed in a buffer consisting of 20 mM Bicine (pH=7.6), 1 mM TCEP, 0.005% BSG, and 0.002% Tween 20, prepared on the day of use. Compounds in 100% DMSO (1 ul) were spotted into a polypropylene 384-well V-bottom plates (Greiner) using a Platemate Plus outfitted with a 384-channel head (Thermo Scientific). DMSO (1 ul) was added to Columns 11, 12, 23, 24, rows A-H for the maximum signal control and 1 ul of SAH, a known product and inhibitor of PRMT6, was added to columns 11, 12, 23, 24, rows I-P for the minimum signal control. A cocktail (40 ul) containing the PRMT6 enzyme was added by Multidrop Combi (Thermo-Fisher). The compounds were allowed to incubate with PRMT6 for 30 min at room temperature, then a cocktail (10 ul) containing SAM and peptide was added to initiate the reaction (final volume=51 ul). The final concentrations of the components were as follows: PRMT6 was 1 nM, ^3H-SAM was 200 nM, non-radiolabeled SAM was 250 nM, peptide was 75 nM, SAH in the minimum signal control wells was 1 mM, and the DMSO concentration was 2%. The assays were stopped by the addition of non-radiolabeled SAM (10 ul) to a final concentration of 400 uM, which dilutes the ^3H-SAM to a level where its incorporation into the peptide substrate is no longer detectable. 50 ul of the reaction in the 384-well polypropylene plate was then transferred to a 384-well Flashplate and the biotinylated peptides were allowed to bind to the streptavidin surface for at least 1 hour before being washed once with 0.1% Tween20 in a Biotek ELx405 plate washer. The plates were then read in a PerkinElmer TopCount plate reader to measure the quantity of ^3H-labeled peptide bound to the Flashplate surface, measured as disintegrations per minute (dpm) or alternatively, referred to as counts per minute (cpm).
Where dpm=disintegrations per minute, cmpd=signal in assay well, and min and max are the respective minimum and maximum signal controls. […]
The IC50 is the concentration needed to halve the response being measured. Higher therefore signals lower potency. `CNCCN(C)Cc1c[nH]nc1-c1cccnc1` [Compound 1] displayed an IC50 of at most 100 nM. `CNCCN(C)Cc1c[nH]nc1-c1ccc(O)nc1` [Compound 2] yielded an IC50 of 1010 to 3000 nM. For `CNCCN(C)Cc1c[nH]nc1-c1ccc(N)nc1` [Compound 3] the value was at most 100 nM. The figure for `CN(CCN)Cc1c[nH]nc1-c1cncc(S(C)(=O)=O)c1` [Compound 4] is 1010 to 3000 nM; for `COc1ccc(-c2n[nH]cc2CN(C)CCN)cn1` [Compound 5] it is at most 100 nM. The figure for `Cc1cncc(-c2n[nH]cc2CN(C)CCN)c1` [Compound 6] is 3010 to 10000 nM; for `CN(CCN)Cc1c[nH]nc1-c1cncc(F)c1` [Compound 7] it is at most 100 nM. Take `CN(CCN)Cc1c[nH]nc1-c1cccnc1` [Compound 8]: the IC50 was at most 100 nM. For `CN(CCN)Cc1c[nH]nc1-c1ccncc1` [Compound 9] the value was at most 100 nM. For `Cc1cc(-c2n[nH]cc2CN(C)CCN)cnc1Cl` [Compound 10] the value was at most 100 nM. The figure for `COc1cc(-c2n[nH]cc2CN(C)CCN)ccn1` [Compound 11] is at most 100 nM; for `COc1cc(-c2n[nH]cc2CN(C)CCN)c(Cl)cn1` [Compound 12] it is 101 to 1000 nM. The compound `CN(CCN)Cc1c[nH]nc1-c1ccc(C(F)(F)F)nc1` [Compound 13, N^1-methyl-N^1-((3-(6-(trifluoromethyl)pyridin-3-yl)-1H-pyrazol-4-yl)methyl)ethane-1,2-diamine] displayed an IC50 of at most 100 nM. The figure for `COc1ncc(Cl)cc1-c1n[nH]cc1CN(C)CCN` [Compound 14] is 1010 to 3000 nM; for `COc1ncccc1-c1n[nH]cc1CN(C)CCN` [Compound 15] it is 101 to 1000 nM. In the case of `COc1ccncc1-c1n[nH]cc1CN(C)CCN` [Compound 16], the IC50 was in the range of 101 to 1000 nM. The figure for `Cc1ccncc1-c1n[nH]cc1CN(C)CCN` [Compound 17] is 101 to 1000 nM. In turn, `CN(CCN)Cc1c[nH]nc1-c1cncc(C#N)c1` [Compound 18] gave an IC50 of 101 to 1000 nM. The figure for `CN(CCN)Cc1c[nH]nc1-c1cncc(Cl)c1` [Compound 19] is at most 100 nM. For `CN(CCN)Cc1c[nH]nc1-c1ccc(N2CCOCC2)nc1` [Compound 20] the value was 101 to 1000 nM; for `CC(C)CN(C)c1ccc(-c2n[nH]cc2CN(C)CCN)cn1` [Compound 21], 101 to 1000 nM.

As to `CC(C)Oc1ccc(-c2n[nH]cc2CN(C)CCN)cn1` [Compound 22], the IC50 was at most 100 nM.

The compound `CN(CCN)Cc1c[nH]nc1-c1ccc(N(C)Cc2ccccc2)nc1` [Compound 23] yielded an IC50 of at most 100 nM. With `CCN(CC)c1ccc(-c2n[nH]cc2CN(C)CCN)cn1` [Compound 24], the IC50 fell in the range of 101 to 1000 nM.

`CN(CCN)Cc1c[nH]nc1-c1ccc(NCc2ccccc2)nc1` [Compound 25] gave an IC50 of at most 100 nM. The figure for `CC(C)CNc1ccc(-c2n[nH]cc2CN(C)CCN)cn1` [Compound 26] is at most 100 nM; for `CN(CCN)Cc1c[nH]nc1-c1ccccn1` [Compound 27] it is 3010 to 10000 nM. The figure for `CN(CCN)Cc1c[nH]nc1-c1ccc(C#N)nc1` [Compound 28, 5-(4-(((2-aminoethyl)(methyl)amino)methyl)-1H-pyrazol-3-yl)picolinonitrile] is at most 100 nM. The figure for `CN(CCN)Cc1c[nH]nc1-c1cnccc1C(F)(F)F` [Compound 29] is 101 to 1000 nM; for `CNCCN(C)Cc1c[nH]nc1-c1ccc(N(C)CCC(C)C)nc1` [Compound 30] it is at most 100 nM. As for `CNCCN(C)Cc1c[nH]nc1-c1ccc(N(CC(C)C)CC(C)C)nc1` [Compound 31], the IC50 lay in the range of 1010 to 3000 nM. For `CNCCN(C)Cc1c[nH]nc1-c1ccc(N(C)CC(C)C)nc1` [Compound 32, N^1-((3-(6-(isobutyl(methyl)amino)pyridin-3-yl)-1H-pyrazol-4-yl)methyl)-N^1,N^2-dimethylethane-1,2-diamine] the value was 101 to 1000 nM; for `CNCCN(C)Cc1c[nH]nc1-c1ccc(N(C)C(C)C)nc1` [Compound 33, N^1-((3-(6-(isopropyl(methyl)amino)pyridin-3-yl)-1H-pyrazol-4-yl)methyl)-N^1,N^2-dimethylethane-1,2-diamine], 101 to 1000 nM; for `CCN(CCC(C)C)c1ccc(-c2n[nH]cc2CN(C)CCNC)cn1` [Compound 34, N^1-((3-(6-(ethyl(isopentyl)amino)pyridin-3-yl)-1H-pyrazol-4-yl)methyl)-N^1,N^2-dimethylethane-1,2-diamine], 101 to 1000 nM. The figure for `CNCCN(C)Cc1c[nH]nc1-c1ccc(OCC(C)C)nc1` [Compound 35, N^1-((3-(6-iso-butoxypyridin-3-yl)-1H-pyrazol-4-yl)methyl)-N^1,N^2-dimethylethane-1,2-diamine] is at most 100 nM; for `CCN(CC(C)C)c1ccc(-c2n[nH]cc2CN(C)CCNC)cn1` [Compound 36] it is 1010 to 3000 nM.
